# Organism: Rattus norvegicus
# Experiment: DrugMatrix - Regimen: Daily Repeat
# Format: toxicity, organism-based, Sprague-Dawley
# Design: regimen Daily Repeat, gender Male, age 6-8 weeks
# Conditions: in vivo, po, route oral GAVAGE, vehicle .5 % CMC; for ABSOLUTE BASOPHIL / ABSOLUTE EOSINOPHIL / ABSOLUTE LYMPHOCYTE / ABSOLUTE MONOCYTE / ABSOLUTE SEGMENTED NEUTROPHIL / BASOPHIL / EOSINOPHIL / ERYTHROCYTE COUNT / HEMATOCRIT / HEMOGLOBIN / LEUKOCYTE COUNT / LYMPHOCYTE / MEAN CORPUSCULAR HEMOGLOBIN / MEAN CORPUSCULAR HEMOGLOBIN CONCENTRATION / MEAN CORPUSCULAR VOLUME / MONOCYTE / NEUTROPHIL / NUCLEATED RED BLOOD CELLS / PLATELET COUNT: tissue Blood; for ALANINE AMINOTRANSFERASE / ALBUMIN / ALKALINE PHOSPHATASE / ASPARTATE AMINOTRANSFERASE / BLOOD UREA NITROGEN / CARBON DIOXIDE / CHLORIDE / CHOLESTEROL / CREATINE PHOSPHOKINASE / CREATININE / GLUCOSE / LACTATE DEHYDROGENASE / LIPASE / PHOSPHORUS / POTASSIUM / SODIUM / TOTAL BILIRUBIN / TOTAL PROTEIN / URIC ACID: tissue Plasma
# [1] = 10 mg/kg, 72 h, dose level Low, time 3 day
# [2] = 10 mg/kg, 120 h, dose level Low, time 5 day
# [3] = 350 mg/kg, 72 h, dose level High, time 3 day
smiles,measurement,setting,value
CCC1(c2ccc(N)cc2)CCC(=O)NC1=O (centres undefined) [AMINOGLUTETHIMIDE],ABSOLUTE BASOPHIL,[1],0 CELLS/uL
same,ABSOLUTE EOSINOPHIL,[1],0 CELLS/uL
same,ABSOLUTE LYMPHOCYTE,[1],11710.67 CELLS/uL
same,ABSOLUTE MONOCYTE,[1],267.33 CELLS/uL
same,ABSOLUTE SEGMENTED NEUTROPHIL,[1],2622 CELLS/uL
same,BASOPHIL,[1],0%
same,EOSINOPHIL,[1],0%
same,ERYTHROCYTE COUNT,[1],5.37 x10E6/uL
same,HEMATOCRIT,[1],34.23%
same,HEMOGLOBIN,[1],13.47 G/DL
same,LEUKOCYTE COUNT,[1],14.6 x10E3/uL
same,LYMPHOCYTE,[1],80.33%
same,MEAN CORPUSCULAR HEMOGLOBIN,[1],25.1 pg
same,MEAN CORPUSCULAR HEMOGLOBIN CONCENTRATION,[1],39.33 G/DL
same,MEAN CORPUSCULAR VOLUME,[1],63.77 fL
same,MONOCYTE,[1],1.67%
same,NEUTROPHIL,[1],18%
same,NUCLEATED RED BLOOD CELLS,[1],0 /100WBC
same,PLATELET COUNT,[1],1364.33 x10E3/uL
same,ALANINE AMINOTRANSFERASE,[1],54.67 u/L
same,ALBUMIN,[1],4.07 G/DL
same,ALKALINE PHOSPHATASE,[1],367 u/L
same,ASPARTATE AMINOTRANSFERASE,[1],87.33 u/L
same,BLOOD UREA NITROGEN,[1],17 mg/dL
same,CARBON DIOXIDE,[1],26 mmol/L
same,CHLORIDE,[1],102 MEQ/L
same,CHOLESTEROL,[1],69.33 mg/dL
same,CREATINE PHOSPHOKINASE,[1],357.33 u/L
same,CREATININE,[1],0.16 mg/dL
same,GLUCOSE,[1],160 mg/dL
same,LACTATE DEHYDROGENASE,[1],241.67 u/L
same,LIPASE,[1],9.33 u/L
same,PHOSPHORUS,[1],13 mg/dL
same,POTASSIUM,[1],6.52 MEQ/L
same,SODIUM,[1],143.27 MEQ/L
same,TOTAL BILIRUBIN,[1],0.2 mg/dL
same,TOTAL PROTEIN,[1],5.67 G/DL
same,URIC ACID,[1],1.83 mg/dL
same,ABSOLUTE BASOPHIL,[2],0 CELLS/uL
same,ABSOLUTE EOSINOPHIL,[2],0 CELLS/uL
same,ABSOLUTE LYMPHOCYTE,[2],14655 CELLS/uL
same,ABSOLUTE MONOCYTE,[2],54.33 CELLS/uL
same,ABSOLUTE SEGMENTED NEUTROPHIL,[2],1457.33 CELLS/uL
same,BASOPHIL,[2],0%
same,EOSINOPHIL,[2],0%
same,ERYTHROCYTE COUNT,[2],5.82 x10E6/uL
same,HEMATOCRIT,[2],35.6%
same,HEMOGLOBIN,[2],14.1 G/DL
same,LEUKOCYTE COUNT,[2],16.17 x10E3/uL
same,LYMPHOCYTE,[2],90.67%
same,MEAN CORPUSCULAR HEMOGLOBIN,[2],24.23 pg
same,MEAN CORPUSCULAR HEMOGLOBIN CONCENTRATION,[2],39.67 G/DL
same,MEAN CORPUSCULAR VOLUME,[2],61.17 fL
same,MONOCYTE,[2],0.33%
same,NEUTROPHIL,[2],9%
same,NUCLEATED RED BLOOD CELLS,[2],0 /100WBC
same,PLATELET COUNT,[2],1044 x10E3/uL
same,ALANINE AMINOTRANSFERASE,[2],56 u/L
same,ALBUMIN,[2],4.33 G/DL
same,ALKALINE PHOSPHATASE,[2],463 u/L
same,ASPARTATE AMINOTRANSFERASE,[2],91.67 u/L
same,BLOOD UREA NITROGEN,[2],16.67 mg/dL
same,CARBON DIOXIDE,[2],27 mmol/L
same,CHLORIDE,[2],100 MEQ/L
same,CHOLESTEROL,[2],67 mg/dL
same,CREATINE PHOSPHOKINASE,[2],282 u/L
same,CREATININE,[2],0.2 mg/dL
same,GLUCOSE,[2],155.67 mg/dL
same,LACTATE DEHYDROGENASE,[2],347.67 u/L
same,LIPASE,[2],12.33 u/L
same,PHOSPHORUS,[2],11.8 mg/dL
same,POTASSIUM,[2],6.27 MEQ/L
same,SODIUM,[2],142.47 MEQ/L
same,TOTAL BILIRUBIN,[2],0.17 mg/dL
same,TOTAL PROTEIN,[2],5.87 G/DL
same,URIC ACID,[2],1.8 mg/dL
same,ABSOLUTE BASOPHIL,[3],0 CELLS/uL
same,ABSOLUTE EOSINOPHIL,[3],0 CELLS/uL
same,ABSOLUTE LYMPHOCYTE,[3],12308.33 CELLS/uL
same,ABSOLUTE MONOCYTE,[3],135 CELLS/uL
same,ABSOLUTE SEGMENTED NEUTROPHIL,[3],1890 CELLS/uL
same,BASOPHIL,[3],0%
same,EOSINOPHIL,[3],0%
same,ERYTHROCYTE COUNT,[3],6.41 x10E6/uL
same,HEMATOCRIT,[3],37.93%
same,HEMOGLOBIN,[3],15.13 G/DL
same,LEUKOCYTE COUNT,[3],14.33 x10E3/uL
same,LYMPHOCYTE,[3],84.67%
same,MEAN CORPUSCULAR HEMOGLOBIN,[3],23.57 pg
same,MEAN CORPUSCULAR HEMOGLOBIN CONCENTRATION,[3],39.87 G/DL
same,MEAN CORPUSCULAR VOLUME,[3],59.1 fL
same,MONOCYTE,[3],1%
same,NEUTROPHIL,[3],14.33%
same,NUCLEATED RED BLOOD CELLS,[3],0 /100WBC
same,PLATELET COUNT,[3],1180.67 x10E3/uL
same,ALANINE AMINOTRANSFERASE,[3],78.33 u/L
same,ALBUMIN,[3],3.73 G/DL
same,ALKALINE PHOSPHATASE,[3],251.67 u/L
same,ASPARTATE AMINOTRANSFERASE,[3],137.67 u/L
same,BLOOD UREA NITROGEN,[3],12 mg/dL
same,CARBON DIOXIDE,[3],27.33 mmol/L
same,CHLORIDE,[3],100 MEQ/L
same,CHOLESTEROL,[3],103.67 mg/dL
same,CREATINE PHOSPHOKINASE,[3],398 u/L
same,CREATININE,[3],0.14 mg/dL
same,GLUCOSE,[3],120 mg/dL
same,LACTATE DEHYDROGENASE,[3],202.67 u/L
same,LIPASE,[3],10.33 u/L
same,PHOSPHORUS,[3],12.03 mg/dL
same,POTASSIUM,[3],5.62 MEQ/L
same,SODIUM,[3],144.37 MEQ/L
same,TOTAL BILIRUBIN,[3],0.13 mg/dL
same,TOTAL PROTEIN,[3],5.23 G/DL
same,URIC ACID,[3],1.73 mg/dL

# From ChEMBL document CHEMBL3885881, “DrugMatrix”
